# Measurements reported in US20120226031A1, “PALMARUMYCIN BASED INHIBITORS OF THIOREDOXIN AND METHODS OF USING SAME” (ARIZONA BOARD OF REGENTS, ACTING ON BEHALF OF THE …, priority 2005, published 2012).
# Read-outs that look alike come from different tables or passages of the source.
# Tests used:
# [1] = system: MCF-7 human breast cancer cells; test: MCF-7 breast cancer cell growth inhibition; format: cell-based; details: Homo sapiens, MCF7
# [2] = target: T1, cellular thioredoxin reductase (Homo sapiens, UniProt Q16881); test: Inhibition of cellular thioredoxin reductase in MCF-7 cells grown in 1 μM Se; format: cell-based
# T1 sequence (Q16881 1-649): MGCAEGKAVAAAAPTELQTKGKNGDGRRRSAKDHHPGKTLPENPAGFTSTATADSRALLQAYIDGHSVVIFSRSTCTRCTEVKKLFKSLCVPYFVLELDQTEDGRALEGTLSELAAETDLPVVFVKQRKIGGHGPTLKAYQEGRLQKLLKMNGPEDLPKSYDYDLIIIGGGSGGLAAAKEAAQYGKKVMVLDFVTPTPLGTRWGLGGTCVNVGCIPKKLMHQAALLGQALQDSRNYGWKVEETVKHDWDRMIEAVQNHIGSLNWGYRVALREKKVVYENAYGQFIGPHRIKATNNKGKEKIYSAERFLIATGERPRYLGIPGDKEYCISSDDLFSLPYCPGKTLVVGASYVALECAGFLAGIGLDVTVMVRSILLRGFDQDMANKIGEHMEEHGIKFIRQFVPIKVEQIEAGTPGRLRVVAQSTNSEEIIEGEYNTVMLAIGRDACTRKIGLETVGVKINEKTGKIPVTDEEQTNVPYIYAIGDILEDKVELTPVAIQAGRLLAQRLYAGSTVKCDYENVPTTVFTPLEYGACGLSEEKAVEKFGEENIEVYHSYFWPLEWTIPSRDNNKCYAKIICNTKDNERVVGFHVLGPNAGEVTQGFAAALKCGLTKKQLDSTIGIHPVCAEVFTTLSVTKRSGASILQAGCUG
# Experimental: (§1) FIG. 3. Inhibition of cellular thioredoxin reductase by PX-916. MCF-7 human breast cancer cells grown in medium containing 1 μM Se for 7 days were treated with PX-916 and total cellular thioredoxin reductase activity measured. A. Time course of the inhibition of the thioredoxin reductase on exposure to 1 μM PX-916. […] In both cases values are the mean of 3 separate determinations and bars are S.E. P≦0.04 or **p≦0.01. C. Inhibition of MCF-7 tumor thioredoxin reductase by PX-916. MCF-7 human breast cancer xenografts were grown in female scid mice implanted with 17-β-estradiol 60 day slow-release pellets until they were ˜300 mm^3. The mice were administered a single dose of PX-916 of 25 mg/kg i.v. and tumors harvested at various times. Thioredoxin reductase activity was measured in tumor homogenates. Values are the mean of 3 mice at each time point and bars are SE. **p<0.01 compared to pretreatment value.
# Cell growth inhibition of MCF-7 human breast cancer cells by palmarumycin, PX-916 and PX-960 occurred at similar concentration of 1 to 3 μM (Table 2). MCF-7 human breast cancer cells were grown in medium containing 1 μM selenium (Se) for 7 days which increased cellular thioredoxin reductase activity by about 5 fold as previously reported. […] Thus, inhibition of purified human TR, MCF-7 cellular TR and cell growth inhibition of MCF-7 cells by PX-916 occurred at about the same concentrations.
# [3] = system: MCF-7 human tumor xenograft TR; test: Inhibition of tumor thioredoxin reductase in MCF-7 xenografts; format: in vivo, mouse; details: 25 mg/kg/d i.v. five daily doses, 24 hr after last dose
# Experimental: as §1
# FIG. 5. Inhibition of tumor HIF-1α, VEGF and thioredoxin reductase by repeated administration of PX-916. Female scid mice were implanted 1d previously with a 90-d 17β-estradiol slow release pellet were inoculated s.c. with 10^7 MCF-7 human breast cancer cells. When the tumors were 300 mm^3, vehicle or 25 mg/kg/d PX-916 was given i.v. for five doses. […]
# [4] = system: A-673 human rhabdomyosarcoma xenografts; test: Antitumor activity, A-673 rhabdomyosarcoma xenograft; format: in vivo, mouse; design: dose or concentration left out as unconfirmed; details: ip
# Experimental: FIG. 4. Antitumor activity of PX-916. A. Female beige nude mice were inoculated subcutaneously (s.c.) with 10^7 A-673 rhabdomyosarcoma cells. […] B. Female scid mice were inoculated s.c. with 10^7 SHP-77 human small cell lung cancer cells. When tumors were 130 mm^3 on day 17 (arrow) dosing was begun with (∘) vehicle alone; (▪) PX-916 10 mg/kg i.v. daily for 8 doses; (▴) PX-916 25 mg/kg i.v. daily for 5 doses. C. Female scid mice implanted 1 day previously with a 17-β-estradiol 60 day slow release pellet were inoculated s.c. with 10^7 MCF-7 human breast cancer cells. When tumors were 180 mm^3 on day 8 (arrow) dosing was begun with (∘) vehicle alone; (⋄) PX-916 27.5 mg/kg i.v. daily for 5 doses. In both A and B values are the mean of 8 mice per group and bars are SE.
# A single intravenous (i.v.) dose of PX-916 of 25 mg/kg inhibited MCF-7 human tumor xenograft TR up to about 60% at 24 hr and the inhibition was maintained for at least 48 hr (FIG. 3C). […] In this study 3 of eight nice had no histologically detectable tumor when the study was terminated on day 42.
# VEGF = test: Tumor VEGF immunohistochemistry in MCF-7 xenografts; format: in vivo, mouse; details: five daily doses of 25 mg/kg, 24 hours after last dose
# Experimental: FIG. 5. Inhibition of tumor HIF-1α, VEGF and thioredoxin reductase by repeated administration of PX-916. Female scid mice were implanted 1d previously with a 90-d 17β-estradiol slow release pellet were inoculated s.c. with 10^7 MCF-7 human breast cancer cells. When the tumors were 300 mm^3, vehicle or 25 mg/kg/d PX-916 was given i.v. for five doses. Twenty four hours later, the tumors were removed and stained by immunohistochemistry for HIF-1α and VEGF (A) or assayed for thioredoxin reductase activity (B). Columns mean of four mice, SE. P≦0.05.
# Levels of the HIF-1α transcription factor and its downstream target VEGF are increased by thioredoxin-1 expression. We examined the effect of PX-916 administration on tumor HIF-1α and VEGF levels (FIG. 5A). Twenty-four hours after the last dose of five daily doses of PX-916 of 25 mg/kg, there was a decrease in MCF-7 xenograft staining for both HIF-1α and VEGF. At the same time, levels of tumor thioredoxin reductase activity were decreased by 75% (FIG. 5B).
# [5] = Toxicity in female scid mice; format: in vivo, mouse
# [6] = Stability in ethanol at room temperature; format: physicochemical
# Description: PX-916 was stable as a stock solution in ethanol at room temperature with a half life of >5 days. […] Therefore, for in vitro studies PX-916 was used as a stock solution in ethanol, and for in vivo studies made fresh in pH 4.0 buffer vehicle.
# [7] = 25 mg/kg i.v. x5, 24 hr after last dose
# [8] = 25 mg/kg iv QD × 5, 24 hr after last dose, mean ± SE
smiles,measurement,setting,value
"NCC(=O)Oc1ccc2c3c(cccc13)OC1(C=CC(=O)c3c(O)cccc31)O2 (centres unmarked) [PX-916, O-glycyl naphthoquinone spiroketal]",IC50,"[1]; Table 1, read-out: MCF-7 growth inhibition IC50",3.1 µM
same,IC50,"[1]; Table 2, read-out: Inhibition of MCF-7 breast cancer cell growth IC50",3.1 µM
same,IC50,[1]; read-out: IC50 MCF-7 cell growth,3.1 µM
same,time of maximum inhibition of cellular TR,[2]; MCF-7 cells exposed to 1 μM,24 h
same,concentration of maximum inhibition of cellular TR,"[2]; MCF-7 cells, 17 hours exposure",0.5 µM
same,decrease of tumor thioredoxin reductase activity,[3],75%
same,tumor growth inhibition,[4],97%
same,tumor growth rate,[4]; 5 days after dosing,5±3 mm^3/d
same,MCF-7 xenograft staining for VEGF,VEGF,decrease
same,major toxicities observed,[5]; [7],neutropenia and thrombocytopenia
same,plasma liver enzymes,[5]; [7],no observable increase
same,weight loss,[5]; [7],no significant weight loss
same,ALT,[5]; [8],39.8 ± 12.8 U/I
same,AST,[5]; [8],166.9 ± 29.8 U/I
same,Hb,[5]; [8],14.9 ± 0.4 g/dL
same,LY,[5]; [8],0.3 ± 0.1 K/μl
same,MO,[5]; [8],005 ± 0.01 K/μl
same,NE,[5]; [8],0.9 ± 0.3 K/μl
same,PLT,[5]; [8],436 ± 142 K/μl
same,RBC,[5]; [8],8.9 ± 0.4 M/μl
same,WB,[5]; [8],1.3 ± 0.6 K/μl
same,Δbodywt,[5]; [8],-0.6 ± 0.3 g
same,tolerability,"[5]; 5 daily doses of 25 mg/kg i.v., female scid mice",tolerated
same,lethality,"[5]; single i.v. dose of 50 mg/kg, female scid mice",lethal
same,half life of stock solution in ethanol,[6]; b145,> 120 h
same,half-life,"[6]; ethanol, b120, read-out: half-life for conversion to PX-960 in ethanol",> 120 h
